From patent US20050272784A1 (priority 2004, published 2005)

Tested on: type III protein secretion system of P. aeruginosa PA103 (ExoU secretion)
Assay: Tertiary assay: Type III-dependent secretion of ExoU by P. aeruginosa PA103
Format: cell-based
Settings: Pseudomonas aeruginosa, ExoU secreted into extracellular medium
Excerpt: Tertiary assay: inhibition of Type III protein secretion of effectors from a Pseudomonas aeruginosa system. Type III protein secretion is used by P. aeruginosa to secrete several essential virulence determinants. One effector of the type III protein secretion system of P. aeruginosa PA103 is the virulence determinants ExoU.
The amount of Type III-dependent secretion of ExoU by P. aeruginosa PA103 can be determined in a cell-based assay by quantification of the 73.9 kDa ExoU protein scereted into the extracellular medium. Such quantitation can be achieved by growing strain PA103 in a deferrated medium in the presence of nitrilotriacetic acid (an inducer of Type III protein secretion in P. aeruginosa) and either in the presence or absence of putative inhibitors. After a prolonged growth period, the cells are sedimented and the supernatants concentrated by ammonium sulfate precipitation. The proteins in the resuspended pellets are separated by electrophoresis on SDS-polyacrylamide gels. After staining gels with Colloidal Blue™, the 73.9 kDa ExoU band is quantitated by scanning through an imager. The effects of inhibitors on the intensity of the ExoU band may be measured relative to that of untreated controls.

| Structure (SMILES) | IC50 |
| --- | --- |
| N#Cc1ccc(-c2oc(-c3ccc(C(F)(F)F)cc3)nc2C(=O)NC(CSCc2ccccc2)C(=O)O)cc1 (stereo in doubt) [Compound 1, (R)-3-Benzylsulfanyl-2-{[5-(4-cyanophenyl)-2-(4-trifluoromethylphenyl)oxazole-4-carbonyl]amino}propionic acid] | 70.7 µM |
| O=C(NC(Cc1ccc(Cl)cc1)C(=O)O)c1[nH]c(-c2ccc(-c3ccccc3)cc2)nc1-c1cccc(C(F)(F)F)c1 (centres unmarked) [Compound 3, 2-{[2-Biphenyl-4-yl-5-(3-trifluoromethylphenyl)-3H-imidazole-4-carbonyl]amino}-3-(4-chlorophenyl)propionic acid] | 20.6 µM |
| O=C(N[C@H](Cc1ccc(Cl)cc1)C(=O)O)c1nc(-c2ccc(-c3ccccc3)cc2)nn1-c1cccc(C(F)(F)F)c1 [Compound 4, (R)-2-{[5-Biphenyl-4-yl-2-(3-trifluoromethylphenyl)-2H-[1,2,4]triazole-3-carbonyl]amino}-3-(4-chlorophenyl)propionic acid] | 56.6 µM |
| O=C(N[C@@H](CSCc1ccccc1)C(=O)O)c1nc(-c2ccc(C(F)(F)F)cc2)oc1-c1ccc(-c2ccccc2)cc1 [Compound 5, (R)-3-Benzylsulfanyl-2-{[5-biphenyl-4-yl-2-(4-trifluoromethylphenyl)oxazole-4-carbonyl]amino}propionic acid] | 12.5 µM |
| O=C(N[C@@H](CSCc1ccccc1)C(=O)O)c1nc(-c2ccc(C(F)(F)F)cc2)sc1-c1ccc(OCc2ccccc2)cc1 [Compound 7, (R)-2-{[5-(4-Benzyloxyphenyl)-2-(4-trifluoromethylphenyl)thiazole-4-carbonyl]amino}-3-benzylsulfanylpropionic acid] | 54.4 µM |
| O=C(N[C@@H](CSCc1ccccc1)C(=O)O)c1nc(-c2ccc(Oc3ccccc3)cc2)oc1-c1ccc(Cl)c(Cl)c1 [Compound 8, (R)-3-Benzylsulfanyl-2-{[5-(3,4-dichlorophenyl)-2-(4-phenoxyphenyl)oxazole-4-carbonyl]amino}propionic acid] | 45.4 µM |
| O=C(N[C@@H](CSCc1ccccc1)C(=O)O)c1nc(-c2ccc(C(F)(F)F)cc2)oc1C#Cc1ccccc1 [Compound 9, (R)-3-Benzylsulfanyl-2-{[5-phenylethynyl-2-(4-trifluoromethylphenyl)oxazole-4-carbonyl]amino}propionic acid] | 26.7 µM |
| O=C(N[C@@H](COCc1ccccc1)C(=O)O)c1nc(-c2ccc(C(F)(F)F)cc2)oc1C#Cc1ccccc1 [Compound 10, (S)-3-Benzyloxy-2-{[5-phenylethynyl-2-(4-trifluoromethylphenyl)oxazole-4-carbonyl]amino}propionic acid] | 42.4 µM |
| O=C(N[C@@H](COCc1ccccc1)C(=O)O)c1nc(-c2ccc(Oc3ccccc3)cc2)oc1-c1ccc(Cl)c(Cl)c1 [Compound 13, (S)-3-Benzyloxy-2-{[5-(3,4-dichlorophenyl)-2-(4-phenoxyphenyl)-oxazole-4-carbonyl]amino}propionic acid] | 19.3 µM |
| O=C(N[C@@H](CSCc1ccccc1)C(=O)O)c1nc(-c2ccc(C(F)(F)F)cc2)oc1-c1ccc(N2CCCCC2)nc1 [Compound 14, (R)-3-Benzylsulfanyl-2-{[5-(3,4,5,6-tetrahydro-2H-[1,2′]bipyridin-5′-yl)-2-(4-trifluoromethylphenyl)oxazole-4-carbonyl]amino}propionic acid] | 62.8 µM |
| O=C(NC(Cc1ccc(Cl)cc1)C(=O)O)c1nc(-c2ccc(-c3ccccc3)cc2)oc1-c1cccc(C(F)(F)F)c1 (centres unmarked) [Compound 15, 2-{[2-Biphenyl-4-yl-5-(3-trifluoromethylphenyl)oxazole-4-carbonyl]amino}-3-(4-chlorophenyl)propionic acid] | 79.9 µM |
| CN(C(=O)c1nc(-c2ccc(C(F)(F)F)cc2)oc1-c1ccc(-c2ccccc2)cc1)[C@@H](CSCc1ccccc1)C(=O)O [Compound 16] | 80.9 µM |
| O=C(N[C@@H](CSCc1ccccc1)C(=O)O)c1nc(-c2ccc(C(F)(F)F)cc2)oc1-c1ccc(OCc2ccccc2)cc1 [Compound 17, (R)-2-{[5-(4-Benzyloxyphenyl)-2-(4-trifluoromethylphenyl)oxazole-4-carbony]amino}-3-benzylsulfanylpropionic acid] | 34.3 µM |
| O=C(N[C@@H](CSCc1ccccc1)C(=O)O)c1nc(-c2ccc(C(F)(F)F)cc2)oc1-c1ccc(-c2cccnc2)cc1 [Compound 18, (R)-3-Benzylsulfanyl-2-{[5-(4-pyridin-3-yl-phenyl)-2-(4-trifluoromethylphenyl)-oxazole-4-carbonyl]amino}propionic acid] | 89.1 µM |
| O=C(N[C@@H](CSCc1ccccc1)C(=O)O)c1nc(-c2ccc(C(F)(F)F)cc2)oc1-c1ccc(-c2ccncc2)cc1 [Compound 19, (R)-3-Benzylsulfanyl-2-{[5-(4-pyridin-4-yl-phenyl)-2-(4-trifluoromethylphenyl)oxazole-4-carbonyl]amino}propionic acid] | 78.2 µM |
| O=C(N[C@@H](COCc1ccccc1)C(=O)O)c1nc(-c2ccc(C(F)(F)F)cc2)oc1-c1cc2ccccc2s1 [Compound 22, (S)-2-{[5-Benzo[b]thien-2-yl-2-(4-trifluoromethylphenyl)oxazole-4-carbonyl]amino}-3-benzyloxypropionic acid] | 82.4 µM |
| O=C(N[C@@H](CSCc1ccccc1)C(=O)O)c1nc(-c2ccc(C(F)(F)F)cc2)oc1-c1cc2ccccc2s1 [Compound 23, (R)-2-{[5-Benzo[b]thien-2-yl-2-(4-trifluoromethylphenyl)oxazole-4-carbonyl]amino}-3-benzylsulfanylpropionic acid] | 40.7 µM |
| O=C(N[C@@H](COCc1ccccc1)C(=O)O)c1nc(-c2ccc(C(F)(F)F)cc2)oc1-c1ccc2ccccc2n1 [Compound 27, (S)-3-Benzyloxy-2-{[5-quinolin-2-yl-2-(4-trifluoromethylphenyl)oxazole-4-carbonyl]amino}propionic acid] | 93.1 µM |
| O=C(N[C@@H](COCc1ccccc1)C(=O)O)c1nc(-c2ccc(C(F)(F)F)cc2)oc1-c1ccc(Cl)nc1 [Compound 29, (S)-3-Benzyloxy-2-{[5-(6-chloropyridin-3-yl)-2-(4-trifluoromethylphenyl)oxazole-4-carbonyl]amino}propionic acid] | 73.4 µM |
| O=C(N[C@@H](CSCc1ccccc1)C(=O)O)c1nc(-c2ccc(C(F)(F)F)cc2)oc1-c1ccc(-c2ccccc2)nc1 [Compound 33, (R)-3-Benzylsulfanyl-2-{[5-(6-phenylpyridin-3-yl)-2-(4-trifluoromethylphenyl)oxazole-4-carbonyl]amino}propionic acid] | 48.9 µM |
| O=C(N[C@@H](CSCc1ccccc1)C(=O)O)c1nc(-c2ccc(C(F)(F)F)cc2)oc1-c1ccc(-c2ccc(F)cc2)nc1 [Compound 34, (R)-3-Benzylsulfanyl-2-{[5-[6-(4-fluorophenyl)pyridin-3-yl]-2-(4-trifluoromethylphenyl)oxazole-4-carbonyl]amino}propionic acid] | 47.4 µM |
| O=C(N[C@@H](COCc1ccccc1)C(=O)O)c1nc(-c2ccc(C(F)(F)F)cc2)oc1-c1cc2ccccc2o1 [Compound 35, (S)-2-{[5-Benzofuran-2-yl-2-(4-trifluoromethylphenyl)oxazole-4-carbonyl]amino}-3-benzyloxypropionic acid] | 79.8 µM |
| O=C(N[C@@H](COCc1ccccc1)C(=O)O)c1nc(-c2ccc(Oc3ccccc3)cc2)oc1-c1ccc(Cl)nc1Cl [Compound 37, (S)-3-Benzyloxy-2-{[5-(2,6-dichloropyridin-3-yl)-2-(4-phenoxyphenyl)oxazole-4-carbonyl]amino}propionic acid] | 91.7 µM |
| O=C(NC(Cc1ccc(Cl)cc1)C(=O)O)c1nc(-c2ccc(Oc3ccccc3)cc2)oc1-c1cnc(Cl)c(Cl)c1 (centres unmarked) [Compound 41, 3-(4-Chlorophenyl)-2-{[5-(5,6-dichloropyridin-3-yl)-2-(4-phenoxyphenyl)oxazole-4-carbonyl]amino}propionic acid] | 51.6 µM |
| O=C(NC(Cc1ccc(Cl)cc1)C(=O)O)c1nc(-c2ccc(C(F)(F)F)cc2)oc1-c1cc2ccccc2o1 (centres unmarked) [Compound 42, 2-{[5-Benzofuran-2-yl-2-(4-trifluoromethylphenyl)oxazole-4-carbonyl]amino}-3-(4-chlorophenyl)propionic acid] | 27.1 µM |
| O=C(N[C@@H](CSCc1ccccc1)C(=O)O)c1nc(-c2ccc(-c3ccccc3)cc2)oc1-c1cnc(Cl)c(Cl)c1 [Compound 43, (R)-3-Benzylsulfanyl-2-{[2-biphenyl-4-yl-5-(5,6-dichloropyridin-3-yl)oxazole-4-carbonyl]amino}propionic acid] | 45.7 µM |
| O=C(NC(Cc1ccc(Cl)cc1)C(=O)O)c1nc(-c2ccc(-c3ccccc3)cc2)oc1-c1cnc(Cl)c(Cl)c1 (centres unmarked) [Compound 45, 2-{[2-Biphenyl-4-yl-5-(5,6-dichloropyridin-3-yl)oxazole-4-carbonyl]amino}-3-(4-chlorophenyl)propionic acid] | 51.8 µM |
| Cn1cc(-c2oc(-c3ccc(C(F)(F)F)cc3)nc2C(=O)NC(Cc2ccc(Cl)cc2)C(=O)O)c2ccccc21 (centres unmarked) [Compound 48, 3-(4-Chlorophenyl)-2-{[5-(1-methyl-1H-indol-3-yl)-2-(4-trifluoromethylphenyl)oxazole-4-carbonyl]amino}propionic acid] | 73.5 µM |
| Cc1nc(-c2ccc(-c3oc(-c4ccc(C(F)(F)F)cc4)nc3C(=O)N[C@@H](CSCc3ccccc3)C(=O)O)cc2)no1 [Compound 51, (R)-3-Benzylsulfanyl-2-{[5-[4-(5-methyl[1,2,4]oxadiazol-3-yl)phenyl]-2-(4-trifluoromethylphenyl)oxazole-4-carbonyl]amino}propionic acid] | 19.5 µM |
